In EP0540859B1, “Anthracycline prodrugs” (Bristol-Myers Squibb Company, priority 1987, dated 1989):

What was measured:
[1] = test system: H2981 tumor cells; experiment: 3H-thymidine uptake assay on H2981 cells, PVA conjugates with APO; assay type: cell-based; conditions: Homo sapiens; H2981 cells untreated with any conjugate
Protocol: The in vitro cytotoxic effect of the antibody-PVA/ adriamycin prodrug combination of the invention toward H2981 tumor cells was measured using the ^3H-thymidine uptake assay described in Examples 1 and 2 above. Briefly, the H2981 tumor cells were plated into 96-well microtiter plates in IMDM (10,000 cells/well) and were allowed to attached for 18 h at 37°C. The antibody-PVA conjugates, L6-PVA or 1F5-PVA, were then added at a concentration of 10 µg/ml of antibody and the plates were incubated for 30 min at 4°C. The wells were then washed four times with IMDM and APO was added at varying concentrations in IMDM. After two h, the wells were again washed, IMDM was added and the cells were left for 18 h at 37°C. At that point, ^3H-thymidine was added (1 µCi per well) and after 6 h, the plates were frozen at -70°C to detach the cells. After thawing, the cells were harvested onto glass fiber filters. The incorporation of ^3H-thymidine was measured in a Beckman 3801 scintillation counter and compared to cells treated with APO or adriamycin (ADM) alone.

[2] = test system: Daudi cells; experiment: 3H-thymidine assay on Daudi cells, PVA conjugates with APO; assay type: cell-based; conditions: Figure 25
Protocol: The ^3H-thymidine assay was performed essentially as described in the examples above with slight modifications due to the fact that the Daudi cells are non-adherent. Thus, approximately 250,000 Daudi cells in IMDM were plated into each well of a 96-well microtiter plate and the antibody-enzyme conjugate added. The reaction mixture was incubated at 4°C for 30 min. Unbound antibody-enzyme conjugate was removed by centrifuging at 500 x g for 5 min and removing the supernatant. The cells were resuspended in IMDM and the washing procedure was repeated three times to remove all unbound conjugate. APO in IMDM was then added for 2 h and washed once as described above. The remainder of the assay was performed as described in the examples above.

## COc1cccc2c1C(=O)c1c(O)c3c(c(O)c1C2=O)C[C@@](O)(C(=O)CO)C[C@@H]3O[C@H]1C[C@H](N)[C@H](O)[C@H](C)O1 [adriamycin, reference compound]
[1]
  IC50: 38 nM
[2]
  cytotoxicity on Daudi cells: significantly more toxic than APO
